How the values were obtained:
[1] = tested on: COR-L88 (Small Cell Lung Carcinoma); experiment: Bliss excess, mean over the matrix (fraction); higher = more synergy
Summary of the method: (§1)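 Bliss excess equals the observed combination effect minus the expected value EA + EB − EA·EB, where EA and EB are the effects of each agent alone. Combination Emax is the second-highest inhibition within the matrix. Inhibition was scaled from CellTiter-Glo 2.0 luminescence, with 0 set by vehicle wells and 1 by blank wells, after 72 hours of two-drug dosing of cells plated in 1536-well plates.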

[2] = tested on: CPC-N (Small Cell Lung Carcinoma); experiment: as above
Summary of the method: as §1

GAK (Melanoma) = experiment: as above
Summary of the method: as §1

[3] = tested on: IA-LM (Non-Small Cell Lung Carcinoma); experiment: as above
Summary of the method: as §1

IST-MEL1 (Melanoma) = experiment: as above
Summary of the method: as §1

[4] = tested on: NAMALWA (Burkitt's Lymphoma); experiment: as above
Summary of the method: as §1

NCI-H226 (Mesothelioma) = experiment: as above
Summary of the method: as §1

[5] = tested on: NCI-H3118 (Head and Neck Carcinoma); experiment: as above
Summary of the method: as §1

[6] = tested on: SCC-4 (Oral Cavity Carcinoma); experiment: as above
Summary of the method: as §1

[7] = tested on: SK-CO-1 (Colorectal Carcinoma); experiment: as above
Summary of the method: as §1

[8] = tested on: SKG-IIIa (Cervical Carcinoma); experiment: as above
Summary of the method: as §1

[9] = tested on: SNU-423 (Hepatocellular Carcinoma); experiment: as above
Summary of the method: as §1

[10] = tested on: T84 (Colorectal Carcinoma); experiment: as above
Summary of the method: as §1

[11] = tested on: ZR-75-30 (Breast Carcinoma); experiment: as above
Summary of the method: as §1

[12] = tested on: COR-L88 (Small Cell Lung Carcinoma); experiment: combination Emax (second highest fraction inhibited in the dose matrix, 72 h); higher = more inhibition; extreme values may be limits of the assay
Summary of the method: as §1

[13] = tested on: CPC-N (Small Cell Lung Carcinoma); experiment: as above
Summary of the method: as §1

ES6 (Ewing's Sarcoma) = experiment: as above
Summary of the method: as §1

[14] = tested on: SCC-4 (Oral Cavity Carcinoma); experiment: as above
Summary of the method: as §1

[15] = tested on: SKG-IIIa (Cervical Carcinoma); experiment: as above
Summary of the method: as §1

[16] = tested on: T84 (Colorectal Carcinoma); experiment: as above
Summary of the method: as §1

Structure (SMILES) | Bliss excess [1] | Bliss excess [2] | Bliss excess (GAK (Melanoma)) | Bliss excess [3] | Bliss excess (IST-MEL1 (Melanoma)) | Bliss excess [4] | Bliss excess (NCI-H226 (Mesothelioma)) | Bliss excess [5] | Bliss excess [6] | Bliss excess [7] | Bliss excess [8] | Bliss excess [9] | Bliss excess [10] | Bliss excess [11] | combination Emax [12] | combination Emax [13] | combination Emax (ES6 (Ewing's Sarcoma)) | combination Emax [14] | combination Emax [15] | combination Emax [16]
C=CCn1c(=O)c2cnc(Nc3ccc(N4CCN(C)CC4)cc3)nc2n1-c1cccc(C(C)(C)O)n1 [AZD1775] + CCc1c2c(nc3ccc(O)cc13)-c1cc3c(c(=O)n1C2)COC(=O)[C@]3(O)CC [SN-38] (first compound max 1 µM, partner max 0.3 µM) | -0.0248 | 0.0523 | -0.0432 | -0.0699 | -0.0827 | -0.0172 | -0.0755 | -0.0284 | -0.0732 | -0.0355 | -0.0319 | -0.0644 | 0.0598 | -0.0938 | 0.671 | 0.923 | 0.607 | 0.902 | 0.725 | 0.867
C=CCn1c(=O)c2cnc(Nc3ccc(N4CCN(C)CC4)cc3)nc2n1-c1cccc(C(C)(C)O)n1 [AZD1775] + Nc1ccn([C@@H]2O[C@H](CO)[C@@H](O)C2(F)F)c(=O)n1 [Gemcitabine] (first compound max 1 µM, partner max 0.3 µM) | 0.0144 |  | -0.0443 | -0.0454 | 0.0144 | 0.0247 | 0.0067 | -0.0638 | -0.0574 | -0.0262 | 0.0393 | -0.0538 | 0.0564 | -0.0561 | 0.65 | 0.897 | 0.556 | 0.688 | 0.643 | 0.85
CN(CCO)CC[C@H](CSc1ccccc1)Nc1ccc(S(=O)(=O)NC(=O)c2ccc(N3CCC([C@@H](O)c4ccccc4-c4ccc(Cl)cc4)CC3)cc2)cc1S(=O)(=O)C(F)(F)F [AZD4320] + CC(=O)O[C@H]1C(=O)[C@@]2(C)[C@H]([C@H](OC(=O)c3ccccc3)[C@]3(O)C[C@H](OC(=O)[C@H](O)[C@@H](NC(=O)c4ccccc4)c4ccccc4)C(C)=C1C3(C)C)[C@]1(OC(C)=O)CO[C@@H]1C[C@@H]2O [Paclitaxel] (first compound max 1 µM, 7x7, partner max 3 µM) | 0.25 | 0.0262 | 0.0815 | 0.08 | 0.238 | -0.01 | 0.131 | 0.019 | 0.0946 | -0.0002 | 0.133 | 0.0819 | -0.0222 | 0.0901 | 0.997 | 1 | 0.779 | 0.971 | 0.905 | 0.726
CN(CCO)CC[C@H](CSc1ccccc1)Nc1ccc(S(=O)(=O)NC(=O)c2ccc(N3CCC([C@@H](O)c4ccccc4-c4ccc(Cl)cc4)CC3)cc2)cc1S(=O)(=O)C(F)(F)F [AZD4320] + CS(=O)(=O)CCNCc1ccc(-c2ccc3ncnc(Nc4ccc(OCc5cccc(F)c5)c(Cl)c4)c3c2)o1 [Lapatinib] (first compound max 1 µM, 7x7, partner max 10 µM) | 0.0911 | 0.052 | 0.0059 | -0.0137 | -0.0011 | -0.015 | -0.0437 | 0.0041 | 0.0692 | 0.0785 | -0.0081 | 0.017 | -0.0061 | 0.0458 | 0.986 | 0.977 | 0.971 | 0.942 | 0.479 | 0.886
CN(CCO)CC[C@H](CSc1ccccc1)Nc1ccc(S(=O)(=O)NC(=O)c2ccc(N3CCC([C@@H](O)c4ccccc4-c4ccc(Cl)cc4)CC3)cc2)cc1S(=O)(=O)C(F)(F)F [AZD4320] + Nc1ccn([C@@H]2O[C@H](CO)[C@@H](O)C2(F)F)c(=O)n1 [Gemcitabine] (first compound max 1 µM, 7x7, partner max 0.3 µM) | 0.0283 | 0.0415 | 0.0955 | 0.0296 | 0.134 |  | -0.0209 | -0.0638 | 0.0027 | -0.0065 | 0.0259 | 0.0088 | -0.0434 | -0.0052 | 0.947 | 0.962 | 0.824 | 0.743 | 0.475 | 0.508
Cc1c2c(nn1C)CSCc1cc(n(C)n1)CSc1cc(c3ccccc3c1)OCCCc1c(C(=O)O)n(C)c3c-2c(Cl)ccc13 [AZD5991] + CC(=O)O[C@H]1C(=O)[C@@]2(C)[C@H]([C@H](OC(=O)c3ccccc3)[C@]3(O)C[C@H](OC(=O)[C@H](O)[C@@H](NC(=O)c4ccccc4)c4ccccc4)C(C)=C1C3(C)C)[C@]1(OC(C)=O)CO[C@@H]1C[C@@H]2O [Paclitaxel] (first compound max 1 µM, 7x7, partner max 3 µM) | 0.0486 | -0.0539 | 0.0893 | -0.0452 | -0.0215 | 0.0041 | -0.008 | 0.0079 | -0.0628 | -0.052 | -0.036 | -0.0344 | -0.0379 | 0.0617 | 0.515 | 0.773 | 0.312 | 0.868 | 0.487 | 0.701
Cc1c2c(nn1C)CSCc1cc(n(C)n1)CSc1cc(c3ccccc3c1)OCCCc1c(C(=O)O)n(C)c3c-2c(Cl)ccc13 [AZD5991] + CS(=O)(=O)CCNCc1ccc(-c2ccc3ncnc(Nc4ccc(OCc5cccc(F)c5)c(Cl)c4)c3c2)o1 [Lapatinib] (first compound max 1 µM, 7x7, partner max 10 µM) | -0.0283 | -0.0429 | 0.015 | -0.0292 | -0.005 | -0.0204 | -0.0183 | 0.0426 | 0.0449 | 0.0034 | 0.0014 | -0.0272 | 0.0239 | 0.063 | 0.305 | 0.327 | 0.515 | 0.81 | 0.456 | 0.469
Cc1c2c(nn1C)CSCc1cc(n(C)n1)CSc1cc(c3ccccc3c1)OCCCc1c(C(=O)O)n(C)c3c-2c(Cl)ccc13 [AZD5991] + Nc1ccn([C@@H]2O[C@H](CO)[C@@H](O)C2(F)F)c(=O)n1 [Gemcitabine] (first compound max 1 µM, 7x7, partner max 0.3 µM) | 0.0854 | -0.0387 | 0.01 | -0.0384 | -0.0045 | -0.0379 | -0.024 | -0.0107 | -0.0333 | -0.0284 | -0.0271 | -0.0672 | -0.0187 | 0.0283 | 0.485 | 0.754 | 0.529 | 0.53 | 0.332 | 0.521
C[C@@H]1COCCN1c1cc(C2([S@](C)(=N)=O)CC2)nc(-c2ccnc3[nH]ccc23)n1 [AZD6738] + C1CC(C1)(C(=O)[O-])C(=O)[O-].N.N.[Pt+2] [Carboplatin] (first compound max 10 µM, 7x7, partner max 10 µM) | -0.0207 | -0.0391 | -0.0442 | -0.047 | -0.0271 | -0.0293 | -0.0383 | -0.0423 | 0 | 0.0009 | -0.0079 | -0.0425 | -0.0041 | -0.0119 | 0.299 | 0.8 |  | 0.552 | 0.407 | 0.731
C[C@@H]1COCCN1c1cc(C2([S@](C)(=N)=O)CC2)nc(-c2ccnc3[nH]ccc23)n1 [AZD6738] + Nc1ccn([C@@H]2O[C@H](CO)[C@@H](O)C2(F)F)c(=O)n1 [Gemcitabine] (first compound max 10 µM, 7x7, partner max 0.3 µM) | 0.105 | 0.0021 | -0.0055 | -0.027 | 0.0314 | 0.0357 | 0.041 | 0.0134 | 0.0044 | 0.0365 | 0.0657 | 0.0969 | 0.0477 | 0.0117 | 0.756 | 0.949 | 0.731 | 0.849 | 0.623 | 0.793
N#Cc1cnc(Nc2cc(NC[C@H]3CNCCO3)c(C(F)(F)F)cn2)cn1 [SRA737] + C=CCn1c(=O)c2cnc(Nc3ccc(N4CCN(C)CC4)cc3)nc2n1-c1cccc(C(C)(C)O)n1 [AZD1775] (first compound max 10 µM, partner max 1 µM) | 0.111 | 0.0589 | 0.0525 | 0.0224 | 0.046 | 0.0724 | -0.0457 | 0.0583 | 0.0374 | 0.0306 | -0.031 | 0.0786 | 0.0022 | -0.0093 | 0.685 |  | 0.349 | 0.64 | 0.465 | 0.853
N#Cc1cnc(Nc2cc(NC[C@H]3CNCCO3)c(C(F)(F)F)cn2)cn1 [SRA737] + CCc1c2c(nc3ccc(O)cc13)-c1cc3c(c(=O)n1C2)COC(=O)[C@]3(O)CC [SN-38] (first compound max 10 µM, 7x7, partner max 0.3 µM) | -0.0179 | 0.0694 |  | -0.0646 | -0.0613 | -0.0123 | -0.0592 | -0.0085 | 0.007 | -0.0667 | 0.0311 | 0.0367 | -0.0351 | -0.0375 | 0.645 | 0.872 | 0.59 | 0.893 | 0.592 | 0.815
N#Cc1cnc(Nc2cc(NC[C@H]3CNCCO3)c(C(F)(F)F)cn2)cn1 [SRA737] + Nc1ccn([C@@H]2O[C@H](CO)[C@@H](O)C2(F)F)c(=O)n1 [Gemcitabine] (first compound max 10 µM, 7x7, partner max 0.3 µM) | -0.0293 | 0.035 | -0.011 | -0.0365 | -0.0023 | 0.0256 | 0.0349 | 0.0007 |  | 0.0698 | 0.13 | 0.0518 | 0.0819 | -0.0408 | 0.617 | 0.916 | 0.599 | 0.758 | 0.575 | 0.827

Reference: the supplement of paper PMC11061612
